pIC50: −log10 of the molar value.
Legend:
[1] = target: BTK (Homo sapiens (Human), UniProt Q06187); test: KINOMEscan scanMAX; format: binding; settings: 2000 nM; read-out: Percent Control
[2] = target: SNRK (Homo sapiens (Human), UniProt Q9NRH2); test: KINOMEscan scanMAX; format: binding; settings: 2000 nM; read-out: Percent Control
[3] = target: FLT3 (Homo sapiens (Human), UniProt P36888); test: KINOMEscan scanMAX; format: binding; settings: 2000 nM; read-out: Percent Control
[4] = target: DAPK1 (Homo sapiens (Human), UniProt P53355); test: KINOMEscan scanMAX; format: binding; settings: 2000 nM; read-out: Percent Control
[5] = target: ABL1(Q252H)-nonphosphorylated (Homo sapiens (Human), UniProt P00519, Q252H); test: KINOMEscan scanMAX; format: binding; settings: 2000 nM; read-out: Percent Control
[6] = target: SLK (Homo sapiens (Human), UniProt Q9H2G2); test: KINOMEscan scanMAX; format: binding; settings: 2000 nM; read-out: Percent Control
[7] = target: JAK2(JH1domain-catalytic) (Homo sapiens (Human), UniProt O60674); test: KINOMEscan scanMAX; format: binding; settings: 2000 nM; read-out: Percent Control
[8] = target: FLT3(R834Q) (Homo sapiens (Human), UniProt P36888, R834Q); test: KINOMEscan scanMAX; format: binding; settings: 2000 nM; read-out: Percent Control
[9] = target: PKN1 (Homo sapiens (Human), UniProt Q16512); test: KINOMEscan scanMAX; format: binding; settings: 2000 nM; read-out: Percent Control
[10] = test system: MYC; test: QPCR gene expression in TNFα-treated HEK293 cells; format: cell-based, human; settings: Homo sapiens, HEK293; range stated for all three genes
From the text: (§1) Two types of cell-based assays for CDK8/19 inhibition were used to test the efficacy of quinoline quinolone compounds described herein (FIG. 3A). The first cell-based assay, which measures the effects of CDK8/19 inhibitors on RNA levels of CDK8/19-regulated genes by quantitative reverse transcription-PCR (QPCR), is based on the ability of CDK8/19 inhibitors to suppress the induction of NFκB-inducible genes by TNFα and to inhibit basal expression of MYC in human embryonic kidney (HEK) 293 cells, as previously described. In this assay, 293 cells growing in DMEM (High-glucose) media supplemented with 10% FBS are pre-treated with the tested inhibitors or DMSO control for 1 hour and then treated with 10 ng/mL TNFα (an activator of NFκB) for 2 hours (in the presence or absence of the tested inhibitors), followed by RNA extraction and QPCR analysis of RNA expression of specific genes conducted as described (Chen et al., ibid), using housekeeping genes RPL13A and GAPDH as normalization standards. […] All the quinoline derivatives inhibited the expression of all three genes.

[11] = test system: CXCL1; test: QPCR gene expression in TNFα-treated HEK293 cells; format: cell-based, human; settings: Homo sapiens, HEK293; range stated for all three genes
From the text: as §1

[12] = test system: IL8; test: QPCR gene expression in TNFα-treated HEK293 cells; format: cell-based, human; settings: Homo sapiens, HEK293; range stated for all three genes
From the text: as §1

[13] = target: MAST1 (Homo sapiens (Human), UniProt Q9Y2H9); test: KINOMEscan scanMAX; format: binding; settings: 2000 nM; read-out: Percent Control
Sequence of MAST1 (Q9Y2H9 whole entry): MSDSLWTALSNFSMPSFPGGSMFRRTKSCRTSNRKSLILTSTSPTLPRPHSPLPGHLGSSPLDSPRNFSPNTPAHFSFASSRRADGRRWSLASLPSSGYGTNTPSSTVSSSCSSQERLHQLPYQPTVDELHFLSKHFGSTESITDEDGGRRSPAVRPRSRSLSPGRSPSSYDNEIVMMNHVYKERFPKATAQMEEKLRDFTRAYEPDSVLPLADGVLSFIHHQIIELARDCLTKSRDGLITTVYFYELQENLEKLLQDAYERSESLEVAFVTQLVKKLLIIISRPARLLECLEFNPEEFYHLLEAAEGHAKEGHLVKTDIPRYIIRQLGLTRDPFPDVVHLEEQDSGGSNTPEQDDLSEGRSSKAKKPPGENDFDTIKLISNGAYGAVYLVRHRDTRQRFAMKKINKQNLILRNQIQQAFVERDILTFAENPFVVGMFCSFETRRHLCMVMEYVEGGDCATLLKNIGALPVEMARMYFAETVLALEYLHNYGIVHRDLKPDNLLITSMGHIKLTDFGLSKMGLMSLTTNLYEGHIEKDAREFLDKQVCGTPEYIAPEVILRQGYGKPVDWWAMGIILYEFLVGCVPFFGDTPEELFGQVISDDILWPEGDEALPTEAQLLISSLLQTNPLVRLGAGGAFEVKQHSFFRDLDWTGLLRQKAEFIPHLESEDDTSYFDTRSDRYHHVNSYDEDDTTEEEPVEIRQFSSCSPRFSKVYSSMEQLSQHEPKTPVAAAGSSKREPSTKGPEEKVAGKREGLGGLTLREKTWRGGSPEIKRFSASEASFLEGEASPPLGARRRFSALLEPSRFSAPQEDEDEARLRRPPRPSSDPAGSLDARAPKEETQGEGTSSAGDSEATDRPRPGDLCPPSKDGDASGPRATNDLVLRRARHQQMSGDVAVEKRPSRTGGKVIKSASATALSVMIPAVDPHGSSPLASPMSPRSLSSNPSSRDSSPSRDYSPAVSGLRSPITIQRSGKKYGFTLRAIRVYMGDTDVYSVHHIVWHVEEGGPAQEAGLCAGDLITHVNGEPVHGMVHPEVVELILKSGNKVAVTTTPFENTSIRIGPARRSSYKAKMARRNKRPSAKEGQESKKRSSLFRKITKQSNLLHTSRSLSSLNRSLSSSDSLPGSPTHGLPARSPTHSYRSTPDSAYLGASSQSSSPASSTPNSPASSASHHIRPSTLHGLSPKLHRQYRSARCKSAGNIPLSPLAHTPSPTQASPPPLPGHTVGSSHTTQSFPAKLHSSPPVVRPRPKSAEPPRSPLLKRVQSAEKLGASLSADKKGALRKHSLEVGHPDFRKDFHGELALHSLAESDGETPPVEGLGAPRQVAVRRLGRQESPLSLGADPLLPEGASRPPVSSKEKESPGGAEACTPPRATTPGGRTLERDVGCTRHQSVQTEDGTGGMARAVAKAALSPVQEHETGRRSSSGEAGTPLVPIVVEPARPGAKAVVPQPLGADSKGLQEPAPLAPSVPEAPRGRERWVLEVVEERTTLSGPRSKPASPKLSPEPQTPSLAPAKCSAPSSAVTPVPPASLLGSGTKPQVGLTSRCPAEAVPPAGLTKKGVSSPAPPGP

[14] = target: CSF1R (Homo sapiens (Human), UniProt P07333); test: KINOMEscan scanMAX; format: binding; settings: 2000 nM; read-out: Percent Control
Sequence of CSF1R (P07333 20-972): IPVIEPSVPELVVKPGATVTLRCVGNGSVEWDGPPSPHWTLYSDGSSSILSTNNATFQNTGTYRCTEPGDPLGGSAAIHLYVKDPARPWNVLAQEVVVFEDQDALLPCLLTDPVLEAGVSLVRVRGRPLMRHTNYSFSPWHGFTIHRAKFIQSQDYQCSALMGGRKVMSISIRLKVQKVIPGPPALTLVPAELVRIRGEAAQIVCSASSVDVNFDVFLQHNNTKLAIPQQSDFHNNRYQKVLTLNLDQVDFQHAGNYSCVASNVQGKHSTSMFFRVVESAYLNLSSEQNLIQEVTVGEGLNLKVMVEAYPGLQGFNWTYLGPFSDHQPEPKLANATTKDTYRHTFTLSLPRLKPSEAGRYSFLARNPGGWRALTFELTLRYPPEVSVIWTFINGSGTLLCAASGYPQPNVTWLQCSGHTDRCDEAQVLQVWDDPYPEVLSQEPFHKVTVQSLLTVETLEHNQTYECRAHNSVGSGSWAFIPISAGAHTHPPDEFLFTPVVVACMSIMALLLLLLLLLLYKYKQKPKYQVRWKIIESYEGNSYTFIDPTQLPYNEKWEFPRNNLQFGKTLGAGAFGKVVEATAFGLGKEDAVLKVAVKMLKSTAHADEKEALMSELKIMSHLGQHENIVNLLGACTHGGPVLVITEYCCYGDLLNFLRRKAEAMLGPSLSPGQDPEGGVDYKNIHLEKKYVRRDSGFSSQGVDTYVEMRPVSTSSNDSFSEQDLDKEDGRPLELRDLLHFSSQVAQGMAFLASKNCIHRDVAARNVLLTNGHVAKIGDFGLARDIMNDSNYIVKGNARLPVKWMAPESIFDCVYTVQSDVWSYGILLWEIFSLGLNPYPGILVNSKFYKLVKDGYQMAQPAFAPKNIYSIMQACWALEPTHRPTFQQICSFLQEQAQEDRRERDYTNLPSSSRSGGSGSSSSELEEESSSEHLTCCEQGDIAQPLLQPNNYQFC

[15] = target: TRKC (NTRK3) (Homo sapiens (Human), UniProt Q16288); test: KINOMEscan scanMAX; format: binding; settings: 2000 nM; read-out: Percent Control
[16] = target: FLT3(K663Q) (Homo sapiens (Human), UniProt P36888, K663Q); test: KINOMEscan scanMAX; format: binding; settings: 2000 nM; read-out: Percent Control
[17] = target: CSNK1G1 (Homo sapiens (Human), UniProt Q9HCP0); test: KINOMEscan scanMAX; format: binding; settings: 2000 nM; read-out: Percent Control
[18] = target: JAK1(JH1domain-catalytic) (Homo sapiens (Human), UniProt P23458); test: KINOMEscan scanMAX; format: binding; settings: 2000 nM; read-out: Percent Control
[19] = target: CDK9 (Homo sapiens (Human), UniProt P50750); test: KINOMEscan scanMAX; format: binding; settings: 2000 nM; read-out: Percent Control
[20] = target: PRKR (EIF2AK2) (Homo sapiens (Human), UniProt P19525); test: KINOMEscan scanMAX; format: binding; settings: 2000 nM; read-out: Percent Control
[21] = target: MAPKAPK2 (Homo sapiens (Human), UniProt P49137); test: KINOMEscan scanMAX; format: binding; settings: 2000 nM; read-out: Percent Control
[22] = target: ERN1 (Homo sapiens (Human), UniProt O75460); test: KINOMEscan scanMAX; format: binding; settings: 2000 nM; read-out: Percent Control
[23] = target: CTK (MATK) (Homo sapiens (Human), UniProt P42679); test: KINOMEscan scanMAX; format: binding; settings: 2000 nM; read-out: Percent Control
[24] = target: HASPIN (GSG2) (Homo sapiens (Human), UniProt Q8TF76); test: KINOMEscan scanMAX; format: binding; settings: 2000 nM; read-out: Percent Control
[25] = target: QSK (KIAA0999) (Homo sapiens (Human), UniProt Q9Y2K2); test: KINOMEscan scanMAX; format: binding; settings: 2000 nM; read-out: Percent Control
[26] = target: DDR2 (Homo sapiens (Human), UniProt Q16832); test: KINOMEscan scanMAX; format: binding; settings: 2000 nM; read-out: Percent Control
[27] = target: MLK2 (MAP3K10) (Homo sapiens (Human), UniProt Q02779); test: KINOMEscan scanMAX; format: binding; settings: 2000 nM; read-out: Percent Control
[28] = target: ACVRL1 (Homo sapiens (Human), UniProt P37023); test: KINOMEscan scanMAX; format: binding; settings: 2000 nM; read-out: Percent Control
Sequence of ACVRL1 (P37023 22-503): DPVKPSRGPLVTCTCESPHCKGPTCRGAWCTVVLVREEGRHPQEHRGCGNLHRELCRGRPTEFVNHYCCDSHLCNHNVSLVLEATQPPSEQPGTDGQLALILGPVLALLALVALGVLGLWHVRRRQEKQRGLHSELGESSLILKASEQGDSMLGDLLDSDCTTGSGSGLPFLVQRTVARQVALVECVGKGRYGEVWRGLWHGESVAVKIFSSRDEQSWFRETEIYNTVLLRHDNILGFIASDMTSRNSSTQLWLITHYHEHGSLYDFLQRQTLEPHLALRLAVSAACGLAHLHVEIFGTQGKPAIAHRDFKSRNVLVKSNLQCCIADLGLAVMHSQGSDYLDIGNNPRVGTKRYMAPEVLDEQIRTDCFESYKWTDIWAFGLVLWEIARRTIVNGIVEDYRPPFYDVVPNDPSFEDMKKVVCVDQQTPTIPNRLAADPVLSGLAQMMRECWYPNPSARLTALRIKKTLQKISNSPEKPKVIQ

[29] = target: JNK2 (MAPK9) (Homo sapiens (Human), UniProt P45984); test: KINOMEscan scanMAX; format: binding; settings: 2000 nM; read-out: Percent Control
[30] = target: CSK (Homo sapiens (Human), UniProt P41240); test: KINOMEscan scanMAX; format: binding; settings: 2000 nM; read-out: Percent Control
[31] = target: TBK1 (Homo sapiens (Human), UniProt Q9UHD2); test: KINOMEscan scanMAX; format: binding; settings: 2000 nM; read-out: Percent Control
[32] = target: CSNK1A1 (Homo sapiens (Human), UniProt P48729); test: KINOMEscan scanMAX; format: binding; settings: 2000 nM; read-out: Percent Control
[33] = target: BRSK2 (Homo sapiens (Human), UniProt Q8IWQ3); test: KINOMEscan scanMAX; format: binding; settings: 2000 nM; read-out: Percent Control
[34] = target: BUB1 (Homo sapiens (Human), UniProt O43683); test: KINOMEscan scanMAX; format: binding; settings: 2000 nM; read-out: Percent Control
Sequence of BUB1 (O43683 whole entry): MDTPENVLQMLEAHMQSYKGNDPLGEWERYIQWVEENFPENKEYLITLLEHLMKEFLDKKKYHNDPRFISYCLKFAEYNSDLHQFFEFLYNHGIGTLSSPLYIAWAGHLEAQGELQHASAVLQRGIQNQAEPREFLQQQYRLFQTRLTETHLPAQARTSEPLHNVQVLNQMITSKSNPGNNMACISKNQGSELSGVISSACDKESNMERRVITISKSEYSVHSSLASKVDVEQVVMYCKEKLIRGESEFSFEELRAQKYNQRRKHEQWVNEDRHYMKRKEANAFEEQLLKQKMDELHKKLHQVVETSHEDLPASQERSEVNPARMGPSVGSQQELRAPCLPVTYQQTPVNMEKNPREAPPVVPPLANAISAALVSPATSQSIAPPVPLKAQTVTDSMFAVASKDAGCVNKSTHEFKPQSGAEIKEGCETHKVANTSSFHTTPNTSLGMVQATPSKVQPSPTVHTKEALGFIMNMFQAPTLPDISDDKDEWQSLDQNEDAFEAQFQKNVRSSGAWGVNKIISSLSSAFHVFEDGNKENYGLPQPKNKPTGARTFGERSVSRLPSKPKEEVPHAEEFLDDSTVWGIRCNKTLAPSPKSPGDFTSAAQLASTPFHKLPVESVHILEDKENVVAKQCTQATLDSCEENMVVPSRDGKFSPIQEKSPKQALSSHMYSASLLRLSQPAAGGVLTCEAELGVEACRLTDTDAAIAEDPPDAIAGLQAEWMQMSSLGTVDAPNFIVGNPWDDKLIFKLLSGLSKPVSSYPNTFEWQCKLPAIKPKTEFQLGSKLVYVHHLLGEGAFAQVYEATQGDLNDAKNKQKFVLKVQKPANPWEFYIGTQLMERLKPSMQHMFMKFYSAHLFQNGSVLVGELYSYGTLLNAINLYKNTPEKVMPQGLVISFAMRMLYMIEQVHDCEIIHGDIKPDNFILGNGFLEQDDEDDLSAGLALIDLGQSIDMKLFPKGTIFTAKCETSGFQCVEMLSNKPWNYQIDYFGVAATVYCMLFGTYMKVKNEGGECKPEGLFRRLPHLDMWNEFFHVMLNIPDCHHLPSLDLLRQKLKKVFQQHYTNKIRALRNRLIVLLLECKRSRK

[35] = target: KIT(D816H) (Homo sapiens (Human), UniProt P10721, D816H); test: KINOMEscan scanMAX; format: binding; settings: 2000 nM; read-out: Percent Control
Sequence of KIT(D816H) (P10721 26-976 D816H): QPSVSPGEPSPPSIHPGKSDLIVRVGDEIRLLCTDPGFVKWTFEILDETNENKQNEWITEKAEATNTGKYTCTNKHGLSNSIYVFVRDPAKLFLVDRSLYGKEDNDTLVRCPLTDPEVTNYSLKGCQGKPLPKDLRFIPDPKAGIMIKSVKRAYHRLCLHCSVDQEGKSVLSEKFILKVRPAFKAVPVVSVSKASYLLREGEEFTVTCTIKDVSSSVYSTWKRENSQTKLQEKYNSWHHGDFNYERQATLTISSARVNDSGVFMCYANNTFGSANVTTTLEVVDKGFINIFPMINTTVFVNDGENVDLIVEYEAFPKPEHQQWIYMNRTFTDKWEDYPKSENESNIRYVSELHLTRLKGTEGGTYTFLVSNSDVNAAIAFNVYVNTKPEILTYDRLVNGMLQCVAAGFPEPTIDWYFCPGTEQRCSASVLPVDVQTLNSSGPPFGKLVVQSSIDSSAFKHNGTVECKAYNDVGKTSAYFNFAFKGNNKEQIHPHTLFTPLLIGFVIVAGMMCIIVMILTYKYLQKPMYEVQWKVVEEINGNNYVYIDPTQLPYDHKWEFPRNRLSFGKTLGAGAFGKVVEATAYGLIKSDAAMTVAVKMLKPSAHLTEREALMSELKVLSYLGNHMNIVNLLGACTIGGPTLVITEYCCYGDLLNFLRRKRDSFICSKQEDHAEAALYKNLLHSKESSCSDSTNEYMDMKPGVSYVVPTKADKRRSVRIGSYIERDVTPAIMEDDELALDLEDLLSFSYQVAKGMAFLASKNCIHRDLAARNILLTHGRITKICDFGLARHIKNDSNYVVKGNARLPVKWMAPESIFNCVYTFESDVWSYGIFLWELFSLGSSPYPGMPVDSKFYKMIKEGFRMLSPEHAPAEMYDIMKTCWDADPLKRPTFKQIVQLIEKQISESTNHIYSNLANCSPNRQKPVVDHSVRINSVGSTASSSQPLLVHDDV

CN1CCN(C(=O)c2ccc3cc(CCNc4ccnc5ccc(C#N)cc45)ccc3c2)CC1 [compound 6148, 4-((2-(6-(4-methylpiperazine-1-carbonyl)naphthalen-2-yl)ethyl)amino)quinoline-6-carbonitrile]
remaining binding at 2 µM [1]: 78% | remaining binding at 2 µM [2]: 75% | remaining binding at 2 µM [3]: 89% | remaining binding at 2 µM [4]: 100% | remaining binding at 2 µM [5]: 73% | remaining binding at 2 µM [6]: 92% | remaining binding at 2 µM [7]: 56% | remaining binding at 2 µM [8]: 70% | remaining binding at 2 µM [9]: 100% | pIC50 [10]: 7.46 to 7.60 | pIC50 [11]: 7.46 to 7.60 | pIC50 [12]: 7.46 to 7.60 | remaining binding at 2 µM [13]: 96% | remaining binding at 2 µM [14]: 85% | remaining binding at 2 µM [15]: 69% | remaining binding at 2 µM [16]: 87% | remaining binding at 2 µM [17]: 100% | remaining binding at 2 µM [18]: 94% | remaining binding at 2 µM [19]: 97% | remaining binding at 2 µM [20]: 88% | remaining binding at 2 µM [21]: 91% | remaining binding at 2 µM [22]: 58% | remaining binding at 2 µM [23]: 56% | remaining binding at 2 µM [24]: 29% | remaining binding at 2 µM [25]: 55% | remaining binding at 2 µM [26]: 64% | remaining binding at 2 µM [27]: 79% | remaining binding at 2 µM [28]: 93% | remaining binding at 2 µM [29]: 67% | remaining binding at 2 µM [30]: 85% | remaining binding at 2 µM [31]: 88% | remaining binding at 2 µM [32]: 76% | remaining binding at 2 µM [33]: 96% | remaining binding at 2 µM [34]: 68% | remaining binding at 2 µM [35]: 57%

— US12281080B2, “Quinoline-based compounds and methods of inhibiting CDK8/19” (University of South Carolina, priority 2018, dated 2025)
